{"source": "paper PMC8752738", "about": "“A propolis-derived small molecule ameliorates metabolic syndrome in obese mice by targeting the CREB/CRTC2 transcriptional complex” (Nature Communications, 2022)", "experiment": "Metabolic chamber assay", "assay_type": "in vivo, mouse", "parameters": "AUC of RER / AUC of RER, group mean: unit not given beside the values", "details": "for RER of DIO: DIO ip APC, single animals", "procedure": "Metabolic parameters of mice were determined using Columbus Instruments Comprehensive Lab Animal Monitoring System (CLAMS). The area unit under the curve (AUC) of respiratory exchange ratio (RER) and ambulatory activity (X-TOT) were calculated using Graphpad prism 8.0.", "note": "Where “and” joins values, the source holds several entries; their conditions need not be identical. Equal entries are not always repeated.", "data": [{"molecule": "CC(C)=CCc1cc(C=CC(=O)O)cc(CC=C(C)C)c1O", "note": "[APC, 3,5-diprenyl-4-hydroxycinnamic acid]", "values": [{"measurement": "RER of DIO", "setting": "interval 42, hour 15.4", "result": "0.814 and 0.86 and 0.83 and 0.806"}, {"measurement": "RER of DIO", "setting": "interval 43, hour 15.8", "result": "0.858 and 0.883 and 0.843 and 0.83"}, {"measurement": "RER of DIO", "setting": "interval 44, hour 16.1", "result": "0.887 and 0.859 and 0.818 and 0.83"}, {"measurement": "RER of DIO", "setting": "interval 45, hour 16.5", "result": "0.883 and 0.858 and 0.81 and 0.824"}, {"measurement": "RER of DIO", "setting": "interval 46, hour 16.9", "result": "0.827 and 0.816 and 0.835 and 0.797"}, {"measurement": "RER of DIO", "setting": "interval 47, hour 17.2", "result": "0.845 and 0.787 and 0.84 and 0.811"}, {"measurement": "RER of DIO", "setting": "interval 48, hour 17.6", "result": "0.803 and 0.8 and 0.812 and 0.779"}, {"measurement": "RER of DIO", "setting": "interval 49, hour 18.0", "result": "0.826 and 0.77 and 0.786 and 0.808"}, {"measurement": "RER of DIO", "setting": "interval 50, hour 18.3", "result": "0.8 and 0.765 and 0.776 and 0.827"}, {"measurement": "RER of DIO", "setting": "interval 51, hour 18.7", "result": "0.816 and 0.804 and 0.782 and 0.849"}, {"measurement": "RER of DIO", "setting": "interval 52, hour 19.1", "result": "0.748 and 0.846 and 0.834 and 0.782"}, {"measurement": "RER of DIO", "setting": "interval 53, hour 19.4", "result": "0.829 and 0.795 and 0.809 and 0.784"}, {"measurement": "RER of DIO", "setting": "interval 54, hour 19.8", "result": "0.795 and 0.796 and 0.8 and 0.821"}, {"measurement": "RER of DIO", "setting": "interval 55, hour 20.2", "result": "0.793 and 0.823 and 0.818 and 0.827"}, {"measurement": "RER of DIO", "setting": "interval 56, hour 20.5", "result": "0.819 and 0.827 and 0.837 and 0.791"}, {"measurement": "RER of DIO", "setting": "interval 57, hour 20.9", "result": "0.849 and 0.806 and 0.795 and 0.788"}, {"measurement": "RER of DIO", "setting": "interval 58, hour 21.3", "result": "0.795 and 0.771 and 0.783 and 0.79"}, {"measurement": "RER of DIO", "setting": "interval 59, hour 21.6", "result": "0.833 and 0.785 and 0.748 and 0.783"}, {"measurement": "RER of DIO", "setting": "interval 60, hour 22.0", "result": "0.787 and 0.839 and 0.786 and 0.789"}, {"measurement": "RER of DIO", "setting": "interval 61, hour 22.4", "result": "0.78 and 0.845 and 0.792 and 0.77"}, {"measurement": "RER of DIO", "setting": "interval 62, hour 22.7", "result": "0.799 and 0.852 and 0.77 and 0.81"}, {"measurement": "RER of DIO", "setting": "interval 63, hour 23.1", "result": "0.815 and 0.784 and 0.793 and 0.796"}, {"measurement": "RER of DIO", "setting": "interval 64, hour 23.5", "result": "0.868 and 0.804 and 0.79 and 0.793"}, {"measurement": "RER of DIO", "setting": "interval 65, hour 23.8", "result": "0.88 and 0.841 and 0.837 and 0.825"}, {"measurement": "RER of DIO", "setting": "interval 66, hour 24.2", "result": "0.846 and 0.879 and 0.838 and 0.813"}, {"measurement": "RER of DIO", "setting": "interval 67, hour 24.6", "result": "0.838 and 0.875 and 0.807 and 0.8"}, {"measurement": "RER of DIO", "setting": "interval 68, hour 24.9", "result": "0.86 and 0.913 and 0.847 and 0.857"}, {"measurement": "RER of DIO", "setting": "interval 69, hour 25.3", "result": "0.873 and 0.865 and 0.838 and 0.896"}, {"measurement": "RER of DIO", "setting": "interval 70, hour 25.7", "result": "0.843 and 0.89 and 0.8 and 0.847"}, {"measurement": "AUC of RER", "setting": "WT mice, individual mice", "result": "64.64 and 64.37 and 63.27 and 66.85"}, {"measurement": "Twenty-four hours respiratory exchange ratio (RER)", "setting": "WT mice, individual mice, reading 6", "result": "0.933 and 0.928 and 0.895 and 0.97"}, {"measurement": "Twenty-four hours respiratory exchange ratio (RER)", "setting": "WT mice, individual mice, reading 7", "result": "0.939 and 0.96 and 0.973 and 0.974"}, {"measurement": "Twenty-four hours respiratory exchange ratio (RER)", "setting": "WT mice, individual mice, reading 8", "result": "0.918 and 0.961 and 0.922 and 0.982"}, {"measurement": "Twenty-four hours respiratory exchange ratio (RER)", "setting": "WT mice, individual mice, reading 9", "result": "0.913 and 0.964 and 0.926 and 0.986"}, {"measurement": "Twenty-four hours respiratory exchange ratio (RER)", "setting": "WT mice, individual mice, reading 10", "result": "0.969 and 0.971 and 0.952 and 0.978"}, {"measurement": "Twenty-four hours respiratory exchange ratio (RER)", "setting": "WT mice, individual mice, reading 11", "result": "0.955 and 0.975 (2×) and 0.936"}, {"measurement": "Twenty-four hours respiratory exchange ratio (RER)", "setting": "WT mice, individual mice, reading 12", "result": "0.989 and 0.966 and 0.963 and 1.016"}, {"measurement": "Twenty-four hours respiratory exchange ratio (RER)", "setting": "WT mice, individual mice, reading 13", "result": "0.967 and 0.988 and 0.98 and 0.99"}, {"measurement": "Twenty-four hours respiratory exchange ratio (RER)", "setting": "WT mice, individual mice, reading 14", "result": "0.975 and 0.999 and 0.954 and 1.005"}, {"measurement": "Twenty-four hours respiratory exchange ratio (RER)", "setting": "WT mice, individual mice, reading 15", "result": "0.988 and 0.994 and 0.959 and 0.969"}, {"measurement": "Twenty-four hours respiratory exchange ratio (RER)", "setting": "WT mice, individual mice, reading 16", "result": "1.003 and 0.991 and 0.965 and 0.97"}, {"measurement": "Twenty-four hours respiratory exchange ratio (RER)", "setting": "WT mice, individual mice, reading 17", "result": "1.006 and 0.99 and 0.951 and 0.989"}, {"measurement": "Twenty-four hours respiratory exchange ratio (RER)", "setting": "WT mice, individual mice, reading 18", "result": "0.963 and 0.961 and 0.974 and 1.025"}, {"measurement": "Twenty-four hours respiratory exchange ratio (RER)", "setting": "WT mice, individual mice, reading 19", "result": "0.958 and 0.976 and 0.946 and 1.032"}, {"measurement": "Twenty-four hours respiratory exchange ratio (RER)", "setting": "WT mice, individual mice, reading 20", "result": "0.939 and 0.961 and 1.004 and 1.024"}, {"measurement": "Twenty-four hours respiratory exchange ratio (RER)", "setting": "WT mice, individual mice, reading 21", "result": "0.991 and 1.018 and 0.961 and 0.993"}, {"measurement": "Twenty-four hours respiratory exchange ratio (RER)", "setting": "WT mice, individual mice, reading 22", "result": "0.946 and 0.962 and 0.958 and 0.989"}, {"measurement": "Twenty-four hours respiratory exchange ratio (RER)", "setting": "WT mice, individual mice, reading 23", "result": "0.971 and 1.012 and 0.999 and 0.985"}, {"measurement": "Twenty-four hours respiratory exchange ratio (RER)", "setting": "WT mice, individual mice, reading 24", "result": "1.006 and 0.997 and 0.993 and 1.002"}, {"measurement": "Twenty-four hours respiratory exchange ratio (RER)", "setting": "WT mice, individual mice, reading 25", "result": "0.971 and 0.965 and 0.961 and 0.984"}, {"measurement": "Twenty-four hours respiratory exchange ratio (RER)", "setting": "WT mice, individual mice, reading 26", "result": "0.941 and 0.984 and 1.005 and 0.996"}, {"measurement": "Twenty-four hours respiratory exchange ratio (RER)", "setting": "WT mice, individual mice, reading 27", "result": "0.981 and 0.968 and 0.989 and 0.998"}, {"measurement": "Twenty-four hours respiratory exchange ratio (RER)", "setting": "WT mice, individual mice, reading 28", "result": "0.956 and 0.954 and 0.968 and 0.984"}, {"measurement": "Twenty-four hours respiratory exchange ratio (RER)", "setting": "WT mice, individual mice, reading 29", "result": "0.975 and 0.977 and 0.994 and 1.026"}, {"measurement": "Twenty-four hours respiratory exchange ratio (RER)", "setting": "WT mice, individual mice, reading 30", "result": "0.994 and 0.963 and 1.014 and 1.033"}, {"measurement": "AUC of RER, group mean", "setting": "WT mice, n=4", "result": 64.78}, {"measurement": "respiratory exchange ratio (RER) and energy expenditure", "setting": "db/db mice", "result": "significantly elevated"}]}]}
